Tests used:
Assay in all cases: Dundee kinase panel
Format in all cases: biochemical
Conditions in all cases: for remaining activity at 1 µM: read-out: residual activity
[1] = target: T1, MARK4 (Homo sapiens, UniProt Q96L34)
T1 construct: lines 1-140) and Reaction Biology
T1 sequence (Q96L34 1-752): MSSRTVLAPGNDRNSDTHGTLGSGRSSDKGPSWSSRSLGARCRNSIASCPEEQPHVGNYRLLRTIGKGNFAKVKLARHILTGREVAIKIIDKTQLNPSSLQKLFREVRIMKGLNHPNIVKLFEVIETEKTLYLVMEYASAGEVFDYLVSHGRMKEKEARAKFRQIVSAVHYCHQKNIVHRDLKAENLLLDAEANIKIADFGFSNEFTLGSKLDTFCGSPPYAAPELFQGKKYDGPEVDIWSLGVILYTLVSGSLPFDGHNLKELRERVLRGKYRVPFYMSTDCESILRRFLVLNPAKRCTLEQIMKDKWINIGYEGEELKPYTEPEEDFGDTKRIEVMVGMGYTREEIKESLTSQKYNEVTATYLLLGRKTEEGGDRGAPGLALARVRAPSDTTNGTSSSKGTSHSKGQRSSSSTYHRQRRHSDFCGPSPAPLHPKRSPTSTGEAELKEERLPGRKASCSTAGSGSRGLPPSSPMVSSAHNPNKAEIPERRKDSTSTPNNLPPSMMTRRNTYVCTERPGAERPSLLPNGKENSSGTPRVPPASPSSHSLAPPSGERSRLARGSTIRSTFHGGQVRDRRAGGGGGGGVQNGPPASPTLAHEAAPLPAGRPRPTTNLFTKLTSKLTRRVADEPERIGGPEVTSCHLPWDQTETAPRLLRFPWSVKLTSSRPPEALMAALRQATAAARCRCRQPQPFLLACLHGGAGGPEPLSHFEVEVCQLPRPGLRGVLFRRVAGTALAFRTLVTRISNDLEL
Procedure: (§1) Compounds were screened at 1 μM. For key hits, pIC50 values were then determined by HTRF as above. […] Stability in mouse and human liver microsomes was determined by Cyprotex.

[2] = target: T2, TSSK1 (Homo sapiens, UniProt Q9BXA7)
T2 construct: lines 1-140) and Reaction Biology
T2 sequence (Q9BXA7 1-367): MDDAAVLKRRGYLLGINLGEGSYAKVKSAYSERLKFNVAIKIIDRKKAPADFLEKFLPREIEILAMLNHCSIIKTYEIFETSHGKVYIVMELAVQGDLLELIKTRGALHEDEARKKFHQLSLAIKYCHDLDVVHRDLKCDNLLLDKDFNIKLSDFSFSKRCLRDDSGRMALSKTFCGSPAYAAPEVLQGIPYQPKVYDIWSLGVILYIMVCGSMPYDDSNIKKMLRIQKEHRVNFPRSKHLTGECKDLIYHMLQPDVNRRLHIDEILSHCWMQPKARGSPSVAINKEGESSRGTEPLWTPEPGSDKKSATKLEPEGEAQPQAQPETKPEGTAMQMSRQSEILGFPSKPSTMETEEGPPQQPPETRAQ
Procedure: as §1

[3] = target: T3, ULK1 (Homo sapiens, UniProt O75385)
T3 construct: lines 1-140) and Reaction Biology
T3 sequence (O75385 1-1050): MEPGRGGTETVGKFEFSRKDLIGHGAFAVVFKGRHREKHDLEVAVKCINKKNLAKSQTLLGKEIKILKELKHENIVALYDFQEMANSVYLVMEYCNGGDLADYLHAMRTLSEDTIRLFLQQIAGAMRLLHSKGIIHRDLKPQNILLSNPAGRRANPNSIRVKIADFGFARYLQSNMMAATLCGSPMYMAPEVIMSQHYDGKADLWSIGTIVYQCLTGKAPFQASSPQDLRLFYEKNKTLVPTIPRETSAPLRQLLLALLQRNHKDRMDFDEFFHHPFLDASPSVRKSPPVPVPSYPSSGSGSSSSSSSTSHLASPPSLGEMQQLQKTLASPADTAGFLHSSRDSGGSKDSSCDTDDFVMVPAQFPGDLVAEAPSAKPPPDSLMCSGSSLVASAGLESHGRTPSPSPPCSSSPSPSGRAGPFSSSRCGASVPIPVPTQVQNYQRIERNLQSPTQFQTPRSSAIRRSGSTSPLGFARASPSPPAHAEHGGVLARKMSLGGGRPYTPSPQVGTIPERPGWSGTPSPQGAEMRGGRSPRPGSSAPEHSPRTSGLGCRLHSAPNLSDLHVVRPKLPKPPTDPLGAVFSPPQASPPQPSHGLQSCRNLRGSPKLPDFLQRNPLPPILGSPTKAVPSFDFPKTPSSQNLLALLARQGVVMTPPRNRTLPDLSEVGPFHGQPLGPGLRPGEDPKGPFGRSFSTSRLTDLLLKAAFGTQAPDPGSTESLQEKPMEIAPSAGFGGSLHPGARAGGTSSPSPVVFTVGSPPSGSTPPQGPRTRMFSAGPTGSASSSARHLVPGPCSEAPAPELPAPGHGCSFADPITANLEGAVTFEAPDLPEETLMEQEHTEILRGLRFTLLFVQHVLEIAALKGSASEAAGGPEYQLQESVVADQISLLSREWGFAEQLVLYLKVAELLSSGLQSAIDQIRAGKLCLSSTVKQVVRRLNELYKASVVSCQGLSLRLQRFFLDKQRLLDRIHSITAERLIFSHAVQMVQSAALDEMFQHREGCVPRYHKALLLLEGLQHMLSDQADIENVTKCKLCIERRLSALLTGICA
Procedure: as §1

[4] = target: T4, LCK (Homo sapiens, UniProt P06239)
T4 construct: lines 1-140) and Reaction Biology
Procedure: as §1

[5] = target: T5, TAK1 (Homo sapiens, UniProt O43318)
T5 construct: lines 1-140) and Reaction Biology
T5 sequence (O43318 1-303 limits assumed): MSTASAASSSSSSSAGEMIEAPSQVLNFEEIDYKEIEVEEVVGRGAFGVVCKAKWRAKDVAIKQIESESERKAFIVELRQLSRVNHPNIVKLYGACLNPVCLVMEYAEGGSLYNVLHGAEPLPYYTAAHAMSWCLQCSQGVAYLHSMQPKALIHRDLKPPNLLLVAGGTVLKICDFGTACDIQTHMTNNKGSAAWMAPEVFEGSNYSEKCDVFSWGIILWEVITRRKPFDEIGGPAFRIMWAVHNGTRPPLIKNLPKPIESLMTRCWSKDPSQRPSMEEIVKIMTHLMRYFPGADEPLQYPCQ
Procedure: as §1

[6] = target: T6, PIM1 (Homo sapiens, UniProt P11309)
T6 construct: lines 1-140) and Reaction Biology
Procedure: as §1

T6 sequence (P11309 whole entry): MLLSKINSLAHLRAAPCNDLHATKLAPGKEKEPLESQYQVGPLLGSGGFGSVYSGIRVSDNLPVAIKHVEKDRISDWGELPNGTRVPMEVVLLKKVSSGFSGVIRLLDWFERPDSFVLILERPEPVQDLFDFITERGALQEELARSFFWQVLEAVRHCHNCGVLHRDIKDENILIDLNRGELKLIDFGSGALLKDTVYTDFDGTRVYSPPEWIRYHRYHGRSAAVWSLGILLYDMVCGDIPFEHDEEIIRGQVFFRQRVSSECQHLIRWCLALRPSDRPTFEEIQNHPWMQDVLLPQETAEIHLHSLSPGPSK
T4 sequence (P06239 whole entry): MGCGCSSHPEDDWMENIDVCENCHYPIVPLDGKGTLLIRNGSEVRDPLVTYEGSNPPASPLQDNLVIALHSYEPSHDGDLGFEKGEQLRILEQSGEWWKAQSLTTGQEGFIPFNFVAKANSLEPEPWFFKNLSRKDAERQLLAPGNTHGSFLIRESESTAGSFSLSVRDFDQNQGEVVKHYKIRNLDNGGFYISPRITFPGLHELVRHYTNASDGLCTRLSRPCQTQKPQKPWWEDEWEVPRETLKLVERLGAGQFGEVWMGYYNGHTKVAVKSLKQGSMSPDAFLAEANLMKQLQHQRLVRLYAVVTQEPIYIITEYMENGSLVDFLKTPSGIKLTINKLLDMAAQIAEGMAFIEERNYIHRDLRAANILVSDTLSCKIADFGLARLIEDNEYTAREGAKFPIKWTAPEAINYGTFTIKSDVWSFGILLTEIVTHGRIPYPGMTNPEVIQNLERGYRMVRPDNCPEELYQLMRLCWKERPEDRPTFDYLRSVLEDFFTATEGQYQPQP

Row | SMILES | remaining activity at 1 µM [1] | remaining activity at 1 µM [2] | remaining activity at 1 µM [3] | remaining activity at 1 µM [4] | remaining activity at 1 µM [5] | remaining activity at 1 µM [6] | residual activity ([1]; 1 μM) | residual activity ([2]; 1 μM) | residual activity ([3]; 1 μM) | residual activity ([4]; 1 μM) | residual activity ([5]; 1 μM) | residual activity ([6]; 1 μM)
1 | O=C1Nc2ccc(I)cc2/C1=C/c1cc(Br)c(O)c(Br)c1 [GW5074] | 50% | 73% | 97% | 58% | 92% | 76% |  |  |  |  |  | 
2 | Oc1ncnc2c1c(-c1ccccc1)cn2-c1ccccc1 [F1386-0303, 5,7-diphenyl-7H-pyrrolo[2,3-d]pyrimidin-4-ol] | 96% | 109% | 84% | 112% | 102% | 122% |  |  |  |  |  | 
3 | O=C1Cc2c([nH]c3ccc(Br)cc23)-c2ccccc2N1 [Kenpaullone] | 39% | 46% | 107% |  | 113% | 90% |  |  |  |  |  | 
4 | COCCOc1ccc(-c2cn(-c3ccccc3)c3nc[nH]c(=O)c23)cc1 [DMX-5804, 5-[4-(2-methoxy-ethoxy)-phenyl]-7-phenyl-3,7-dihydro-pyrrolo[2,3-d]pyrimidin-4-one] | 99% | 103% | 82% | 109% | 61% | 98% |  |  |  |  |  | 
5 | Nc1ncc(C(=O)NC2CN(C(=O)C3CC3)C2)c2ccc(-c3cccc(F)c3)nc12 [GNE-495] |  |  |  |  |  |  | 51% | 77% | 110% | 104% | 31% | 103%

Source: article PMC6458995, “MAP4K4 Inhibition Promotes Survival of Human Stem Cell-Derived Cardiomyocytes and Reduces Infarct Size In Vivo” (Cell Stem Cell, 2019)
